In data set [1] the test system is dermal fibroblasts. Conditions: Verdoorn et al. 1986; cited from earlier work.
Data set [2] deals with dermal fibroblasts. The settings on record: Verdoorn et al. 1986; cited from earlier work. This is another data set of the same source.
In data set [3] the test system is dermal fibroblasts. Conditions: Verdoorn et al. 1986; cited from earlier work. This is another data set of the same source.
The test system of data set [4] is rabbit conjunctival fibroblasts. Description: Conjunctival fibroblast proliferation, tritiated thymidine assay. The settings on record: day 4; mitomycin-C at 100 μg/ml (positive control); no drug control 8537 cpm. In kind it is cell-based. The text has this: The failure of gluacoma treatment by filtration surgery is most often caused by scarring. Scarring requires fibroblast proliferation and fibrosis of the subconjunctive space. Proliferation of rabbit conjunctival fibroblasts was studied using the tritiated thymidine assay, which serves as an in vitro model of fibroblast proliferation in the rabbit eye (see Invest. Ophthalmol. Vis. Sci., 31, 1848-1855 (1990)). The ability of synthetic polypeptides derived from ECM molecules to inhibit conjuntival fibroblast proliferation was examined in this model.
Rabbit conjunctival fibroblasts were plated into 96-well microtiter plates at 1000 cells/well in 200 microliters of standard fibroblast culture media. Standard fibroblast culture media include Eagle's minimal essential medium containing 15% fetal bovine serum, penicillin G 100 IU/ml, streptomycin 100 μg/ml, and amphotericin B 0.25 μg/ml. Hep-II was added to the wells in concentrations ranging from 1 μg/ml to 1000 μg/ml after removing an equal volume of media to maintain 200 microliters/well. The peptide was used in concentrations of 1, 3, 7, 10, 25, 50, 100, 200, 300, 400, 500, 600, 800 and 1000 microgram/ml (experiments 1-14, respectively in FIG. 26). The tissue culture plates were incubated at 37° C. in a humidified atmosphere of 5% carbon dioxide. Two separate sets experiments were conducted. Each set of experiments was done in replicates of four. In the first set of experiments, tritiated thymidine was added 22 hours prior to each harvesting on days 4, 5, and 8. In the second set of experiments, tritiated thymidine was added 22 hours prior to each harvesting on days 4, 5, and 6. Wells with vehicle but no test compound served as negative controls (experiment #15) and cells with mitomycin-C at 100 μg/ml served as positive controls (experiment #16).

The subject of data set [5] is rabbit dermal fibroblasts. Description: Fibroblast-mediated collagen gel contraction (shrinkage) assay. In kind it is cell-based. The settings on record: for % Contraction: 200 ug type IV collagen peptide, no peptide 36%; for % Contraction / Contraction: cells preincubated 1 hr, gel surface area by planimetry at day 7; for Effect on fibroblast-mediated collagen gel contraction: gels cast with and without fibronectin; for Contraction: 200 ug laminin peptide, no peptide 67%. From the text: As indicated above, proliferative vitreoretinopathy is the result of the proliferation and migration of fibroblasts, retinal pigment epithelial cells, and glial cells, and their organization into vitreous strands and epiretinal membranes. The vitreous strands and epiretinal membranes can contract, resulting in traction retinal detachment. The ability of rabbit dermal fibroblasts to cause contraction was examined in the collagen gel shrinkage model, which serves as an in vitro model of proliferative vitreoretinopathy (see Verdoon et al., Arch. Ophthalmol., 104, 1216-1219 (1986)). The ability of synthetic polypeptides derived from ECM molecules to inhibit contraction in the collagen gel shrinkage model using rabbit fibroblasts was also examined.
Fifty thousand rabbit dermal fibroblasts were suspended in 250 μl of fibroblast assay medium and mixed with 250 μl of Vitrogen and dispensed into the wells of a 48-well plate. The cells were preincubated with the desired polypeptide concentration (25, 50, 100, or 200 ug/ml) for one hour at 37° C. before mixing with the Vitrogen. Gelling occurred within 20 minutes after transfer of the mix of cell suspension and Vitrogen into an incubator at 37° C. with 5% CO2. The gels were overlaid with 250 μl of growth medium. All conditions were tested in duplicate wells. After 24 hours, the gels were detached from the sides of the wells by sweeping with a 27-gauge needle inserted at the interface between the plastic well and the gel (FIGS. 6-8).
Contraction of collagen gels was quantitated by use of planimetry. The gels were observed daily over the seven day period following detachment for evidence of contraction. The plates were photographed at the end of the seven days to record the amount of contraction. The contraction was measured by recording the area of each gel in each well off the photograph using a computer scanner. The area of the gels with polypeptide was compared to the area of the gels without the polypeptide. Planimetry is a two-dimensional measurement. […] The planimetry measurements accordingly underestimate the degree of contraction that actually occurred.
The collagen gels were cast with or without the incorporation of 25 ug/ml of fibronectin. […] These controls using deactivated cells indicate that cell growth and proliferation are required to effect gel shrinkage.

For data set [6], the system named is proliferative vitreoretinopathy rabbit model. The settings on record: cited from earlier work.
For data set [7] the following is noted: 3H-heparin; cited from earlier work.
In data set [8] the test system is proliferative vitreoretinopathy in rabbits. Description: Rabbit model of experimental proliferative vitreoretinopathy (intravitreal fibroblast injection). In kind it is in vivo. As for the experimental part: The rabbit model for proliferative vitreoretinopathy is described in Thresher et al., Graefe's Arch. Clin. Exp. Ophthalmol., 221, 192-198 (1984). Adult Dutch Belted rabbits of both sexes were used in the study. All animals were treated according to ARVO Animal Use Guidelines. All eyes were examined prior to initiation of a study and only clinically normal animals were used.
The rabbits were anesthetized using an intramuscular injection of a mix of ketamine (30 mg/kg) and xylazine (5 mg/kg). Pupils were dilated with Mydriacyl (Tropicamide) 1% and Neosynephrine 2.5% topical drops. Topical conjunctival anesthesia was provided with Proparacaine […] drops. All procedures were performed in an approved animal surgical facility. […] This site was used for subsequent intraocular injections, preventing iatrogenic retinal tears at the injection site. An intravitreal injection of 0.4 cc millipore-filtered 100% perfluoropropane gas was administered to produce a gas compression vitrectomy. Once the expansile gas bubble had absorbed, 5-10×10^4 dermal rabbit fibroblasts with or without 200 μg of polypeptide (injection volume-0.1 cc) were injected through a 27 gauge needle into the vitreous cavity. Under indirect ophthalmoscopic visualization, the tip of the needle was placed over the optic nerve head and the cells were injected in this location.
The animals were then observed for the development of proliferative vitreoretinopathy. The final stage of retinal detachment was scored from 0 to 7 using the standard grading scale shown below (see Hida et al., Graefe's Arch. Clin. Exp. Ophthalmol., 225, 1763-1769 (1991)).
Retinal photographs were taken with a wide field fundus camera (Canon) to document the final stage of retinal detachment. Animals were sacrificed while under deep anesthesia with an intravenous injection of 1 cc of euthanasia solution. The eyes were then immediately enucleated, fixed in 10% formalin, paraffin embedded, sectioned at 7 microns, and stained with hematoxylin and eosin for histology.
Three weeks following peripheral retinal cryopexy and gas compression vitrectomy, rabbit fibroblasts incubated for 1 hr with 200 ug of laminin polypeptide R37, type IV collagen polypeptide Hep-II, or BSS (balanced saline solution; control) were injected intravitreally. One eye of each rabbit received polypeptide incubated fibroblasts and the other eye received the control cells. Eyes were examined every three days, and the degree of retinal detachment was graded on the standard scale described above.

In the next data set the test system is rabbit eye. Description: Intravitreal polypeptide toxicity in rabbit eye (ERG, clinical observations, histology). The class given is in vivo. As for the experimental part:
The toxicity of the polypeptides was determined by three techniques:
ERG. Electroretinograms (ERG) were carried out as a functional indicator of toxicity of a polypeptide treatment. Polypeptides were injected at 200 ug and 400 ug (twice the dose that inhibited proliferative vitreoretinopathy), and ERG measurements were performed three times in each eye at various times post-injection (1 hr to 6 weeks).
Clinical observations. Observation by indirect ophthalmoscopy and slit lamp examination were performed to probe for evidence of toxicity.
Histology. Following ERG and clinical observations, the eyes were immediately enucleated, fixed in 10% formalin, paraffin embedded, sectioned at 7 microns, and stained with hematoxylin and eosin.

No end group written: not given here.

We go through 18 molecules from patent US6013628A, “Method for treating conditions of the eye using polypeptides” (Regents of the University of Minnesota, priority 1995, dated 2000).

As for `COc1cc2c(c(OC)c1OC)-c1ccc(OC)c(=O)cc1[C@@H](NC(C)=O)CC2` [colchicine], the “Inhibition of cell proliferation” value in the data set with dermal fibroblasts [1] is “inhibited cell proliferation”. Moreover, in the data set on dermal fibroblasts [2], the “Inhibition of gel contraction” value is “most effective at inhibiting gel contraction”.
As for `C=C1[C@@H](C)[C@H]2[C@H](Cc3ccccc3)NC(=O)[C@]23OC(=O)/C=C/[C@H](O)CCC[C@@H](C)C/C=C/[C@H]3[C@@H]1O` [cytochalasin B], in the data set on dermal fibroblasts [1], the “Inhibition of cell proliferation” value was “inhibited cell proliferation”. In addition, the “Inhibition of cell migration” value in the data set with dermal fibroblasts [3] was “minimal effect on cell migration”.
As to `COc1cccc2c1C(=O)c1c(O)c3c(c(O)c1C2=O)C[C@@](O)(C(C)=O)C[C@@H]3O[C@H]1C[C@H](N)[C@H](O)[C@H](C)O1` [daunomycin], the “Inhibition of cell proliferation” value in the data set with dermal fibroblasts [1] is on record as “most effective”. For the same molecule, in the data set on dermal fibroblasts [3], the “Inhibition of cell migration” value is “most inhibited”. Further, the “Inhibition of gel contraction” value in the data set on dermal fibroblasts [2] was “not found to inhibit contraction”.
The molecule `CO[C@@]12[C@H](COC(N)=O)C3=C(C(=O)C(C)=C(N)C3=O)N1C[C@@H]1N[C@@H]12` [mitomycin-C, reference compound] had a Thymidine uptake in data set [4] of 375 cpm. In addition, in data set [5] (fibroblasts pretreated with mitomycin C, data not shown), the “Gel contraction by pretreated fibroblasts” value was “did not cause gel contraction”.
In the case of `CC(=O)O[C@H]1C(=O)[C@@]2(C)[C@H]([C@H](OC(=O)c3ccccc3)[C@]3(O)C[C@H](OC(=O)[C@H](O)[C@@H](NC(=O)c4ccccc4)c4ccccc4)C(C)=C1C3(C)C)[C@]1(OC(C)=O)CO[C@@H]1C[C@@H]2O` [taxol], the “Inhibition of cell proliferation” value in the data set with dermal fibroblasts [1] is “most effective”. The “Traction retinal detachment induced by injected chorioretinal fibroblasts” value in [6] (0.5 μg intravitreal injection) was “reduces traction retinal detachment”.
For `CC1(C)O[C@@H]2C[C@H]3[C@@H]4CCC5=CC(=O)C=C[C@]5(C)[C@@]4(F)[C@@H](O)C[C@]3(C)[C@]2(C(=O)CO)O1` [triamcinolone acetonide], the “Incidence of retinal detachment” value in [6] (eyes injected with triamcinolone acetonide, reduced from 93%) is listed as 75%.
Regarding GEFYFDLRLKGDK [Hep-III, GEFYFDLRLKGDK], the Heparin binding result in data set [7] is reported as “reported to bind heparin”. Further, in [5], the “% Contraction” value turned out to be 33%.
Take “GVKGDKGNPGWPGAP [IV-H1, GVKGDKGNPGWPGAP]”: in data set [5], the “% Contraction” value is listed as 72% and the “Effect on fibroblast-mediated collagen gel contraction” value is “frequently found to promote contraction”.
In the case of “KATPMLKMRTSFHGCIK [R37, Lys-Ala-Thr-Pro-Met-Leu-Lys-Met-Arg-Thr-Ser-Phe-His-Gly-Cys-Ile-Lys]”, the “Retina appearance (stage 0-7 scale), fundus photograph” value in data set [8] (200 ug with 100,000 fibroblasts, three weeks after fibroblast injection) is “normal (Stage 0)”. The “# Detached Retinas (%)” value was determined as 0% in data set [8] (Expt II: 200 ug, 50,000 cells, RD staged at day 21, control 40%); 14% in [8] (Expt III: 200 ug, 100,000 cells, RD staged at day 7, control 100%); 25% in data set [8] (Expt IV: 200 ug, 80,000 cells, RD staged at day 21, control 100%). In addition, the “# Detached Retinas” value in data set [8] (Expt II: 200 ug, 50,000 cells, RD staged at day 21, total 5 eyes, control 2 of 5) is listed as 0; in data set [8] (Expt III: 200 ug, 100,000 cells, RD staged at day 7, total 7 eyes, control 7 of 7), 1; in data set [8] (Expt IV: 200 ug, 80,000 cells, RD staged at day 21, total 4 eyes, control 3 of 3), 1. For the same molecule, the “Degree of retinal detachment” value in data set [8] (fibroblasts incubated 1 hr with 200 ug polypeptide, intravitreal) is recorded as “inhibited the degree of retinal detachment”. In data set [7], the Heparin binding entry was “bind”. In [5], this molecule registered a Contraction of 12%. In data set [5], the “Effect on fibroblast-mediated collagen gel contraction” value is “most potent inhibitory effects on contraction”. In addition, in the data set on rabbit eye (following injection of 400 ug), the Retinal histopathology result was “normal rabbit retinal histopathology”. For the same molecule, the “Toxic effects by clinical observations, histopathology or ERG” value in the data set with rabbit eye (intravitreal injection of 200 ug or 400 ug) is “No toxic effects”.
For KEGYKVRLDLNITLEFRTTSK [R38], the Heparin binding entry in [7] is reported as “bind”. Further, in data set [5], the Contraction turned out to be 74% and the “Effect on fibroblast-mediated collagen gel contraction” value was “frequently found to promote contraction”.
As to KNLEISRSTFDLLRNSYGVRK [R26], the Heparin binding result in data set [7] is “do not bind”. In addition, in data set [5], the Contraction stood at 45% and the “Effect on fibroblast-mediated collagen gel contraction” value is given as “Inhibition of gel contraction was also observed”.
On to KNNQKSEPLIGRKKT [FN-C/H-IIa], for which, in [7], the Heparin binding result is on record as “known to bind”.
Consider “SPPRRARVT [FN-C/H-IV, Ser-Pro-Pro-Arg-Arg-Ala-Arg-Val-Thr]”, for which the Heparin binding entry in data set [7] is on record as “known to bind”. Further, the “Effect on fibroblast-mediated collagen gel contraction” value in data set [5] is listed as “Inhibition of gel contraction was also observed”.
As for TAGSCLRKFSTM [Hep-I, TAGSCLRKFSTM], the Heparin binding result in data set [7] is “reported to bind heparin”. The “% Contraction” value in data set [5] stood at 33%.
“TSLRKALLHAPTGSYSDGQ [R35, TSLRKALLHAPTGSYSDGQ]”: in data set [7], the Heparin binding entry was “do not bind”. Moreover, in [5], the Contraction is 63%.
Take WQPPRARI [FN-C/H-V]: the Heparin binding result in [7] is given as “known to bind”.
YEKPGSPPREVVPRPRPGV [FN-C/H-I]: the Heparin binding entry in data set [7] is reported as “known to bind”.
Consider YRVRVTPKEKTGPMKE [FN-C/H-III], for which the Heparin binding result in data set [7] is “known to bind”.
